Assay results published in paper PMC9779727, “Identification of Novel Artemisinin Hybrids Induce Apoptosis and Ferroptosis in MCF-7 Cells” (International Journal of Molecular Sciences, 2022).

What was measured:
Format in all cases: cell-based, human
[1] = system: breast cancer MDA-MB-231 cells; assay: MTT antiproliferation assay, MDA-MB-231; conditions: means ± SD, n = 3
Source text: (§1) The target hybrids A1–A15 were screened for their antiproliferation activities against five human cancer cell lines (lung cancer A549 cells, breast cancer MCF-7 and MDA-MB-231 cells, colon cancer HCT116 cells and ovarian cancer SK-OV-3 cells) in vitro by the standard MTT method, and 5-fluorouracil (5-FU) and ART were coassayed as controls. […] Therefore, the most promising hybrid, A8, was chosen for further exploration of the preliminary mechanism of MCF-7 cell antiproliferation.
(§2) Cytotoxicity of test compounds against five different tumor cell lines were evaluated using an MTT assay in vitro. Cells were seeded into 96-well plates at a density of 5 × 10^4 cells per well and stabilized at 37 °C with 5% CO2 for 24 h. Compounds A1–A15, ART and 5-FU were added to each well at various concentrations and then the cells were incubated for 48 h. The MTT solution (100 μL 0.5 mg/mL^−1) was added to each well, and the cells were incubated for another 4 h. Then, 150 μL DMSO was added to each well and the absorbance of samples was measured at 492 nm. The IC50 values were calculated according to Logit method after getting the inhibitory rate.

[2] = system: ovarian cancer SK-OV-3 cells; assay: MTT antiproliferation assay, SK-OV-3; conditions: means ± SD, n = 3
Source text: as §1, §2

lung cancer A549 cells = assay: MTT antiproliferation assay, A549; conditions: means ± SD, n = 3
Source text: as §1, §2

[3] = system: colon cancer HCT116 cells; assay: MTT antiproliferation assay, HCT116; conditions: means ± SD, n = 3
Source text: as §1, §2

[4] = system: breast cancer MCF-7 cells; assay: MTT antiproliferation assay, MCF-7; conditions: means ± SD, n = 3
Source text: as §1, §2

GPX4 = assay: Western blotting, GPX4 expression; conditions: MCF-7, added to A8 treatment
Experimental: We examined the effect of A8 on the expression of GPX4 as well, which is vital in preventing ferroptosis. […] Thus, we concluded that A8 induced the accumulation of ROS and lipid peroxidation and suppressed GSH levels and the expression of GPX4, thereby leading to the induction of ferroptosis.
MCF-7 cells were seeded at a density of 4 × 10^5 cells per well and treated with various concentrations of compound A8 (0, 2.5, 5 and 10 μM) for 48 h. After this, cells were collected and washed twice with ice-cold DPBS. The pellets were resuspended in a total protein extraction buffer (20 mM HEPES, 350 mM NaCl, 20% glycerol, 1% NP-40, 1 mM MgCl2, 0.5 mM EDTA, 0.1 mM EGTA, 0.1 mM DTT, 0.1 mM PMSF) containing a protease inhibitor cocktail and incubated on ice for 30 min with intermittent mixing. The protein concentration was measured using the Bradford reagent (Bio-Rad Laboratories Inc., Hercules, CA, USA). An equal amount (20 μg) of protein was loaded on 10% polyacrylamide gels and transferred to a nitrocellulose membrane. After blocking with 5% skimmed milk, the membrane was incubated at 4 °C overnight with specific primary antibodies. The membrane was washed and incubated at room temperature for 1 h with secondary antibodies conjugated with horseradish peroxidase (HRP). Finally, the immunoblot was developed for visualization using a chemiluminescence kit. […]

MCF-7 cells = assay: Lipid peroxidation (MDA) detection; conditions: MCF-7, added to A8 treatment
Source text: We also determined the effect of A8 on the expression of GSH and MDA (lipid peroxidation).
Lipid peroxidation assay kit (Beyotime, Shanghai, China) was used to detect malonaldehyde (MDA), together with GSH level assay, present in samples, as per the manufacturer’s instruction with slight modifications.

| IC50 ([1]; Homo sapiens, MDA-MB-231, 48 h) [µM] | IC50 ([2]; Homo sapiens, SK-OV-3, 48 h) [µM] | IC50 (lung cancer A549 cells; Homo sapiens, A549, 48 h) [µM] | IC50 ([3]; Homo sapiens, HCT-116, 48 h) [µM] | IC50 ([4]; Homo sapiens, MCF7, 48 h) [µM] | Structure (SMILES) | IC50 ([1]; 48 h) [µM] | IC50 ([2]; 48 h) [µM] | IC50 (lung cancer A549 cells; 48 h) [µM] | IC50 ([3]; 48 h) [µM] | IC50 ([4]; 48 h) [µM] | effect on A8-suppressed GPX4 expression (in words) (GPX4) | effect on A8-induced lipid peroxide accumulation (in words) (MCF-7 cells) |
| --- | --- | --- | --- | --- | --- | --- | --- | --- | --- | --- | --- | --- |
| 27.7 ± 1.23 | > 30 | > 30 | 18.4 ± 1.14 | 26.1 ± 0.87 | O=c1[nH]cc(F)c(=O)[nH]1 [5FU, 5-fluorouracil, reference compound] | – | – | – | – | – | – | – |
| – | – | – | – | – | CC1CCC2C(C)C(OC(=O)CCC(=O)NCc3nnc(Nc4ccc(OC(F)(F)F)cc4)o3)OC3OC4(C)CCC1C32OO4 (centres unmarked) [A1] | > 30 | > 30 | > 30 | > 30 | 5.2 ± 1.38 | – | – |
| – | – | – | – | – | Cc1ccc(Nc2nnc(CNC(=O)CCC(=O)OC3OC4OC5(C)CCC6C(C)CCC(C3C)C46OO5)o2)cc1 (centres unmarked) [A2] | 4.89 ± 1.58 | > 30 | > 30 | 14.8 ± 1.77 | 4.26 ± 0.17 | – | – |
| – | – | – | – | – | CCOc1ccccc1Nc1nnc(CNC(=O)CCC(=O)OC2OC3OC4(C)CCC5C(C)CCC(C2C)C35OO4)o1 (centres unmarked) [A3] | > 30 | > 30 | > 30 | > 30 | 6.82 ± 0.25 | – | – |
| – | – | – | – | – | CC1CCC2C(C)C(OC(=O)CCC(=O)NCc3nnc(Nc4c(F)cccc4F)o3)OC3OC4(C)CCC1C32OO4 (centres unmarked) [A4] | > 30 | > 30 | > 30 | > 30 | > 30 | – | – |
| – | – | – | – | – | CC1CCC2C(C)C(OC(=O)CCC(=O)NCc3nnc(Nc4ccc(C(F)(F)F)cc4)o3)OC3OC4(C)CCC1C32OO4 (centres unmarked) [A5] | > 30 | > 30 | > 30 | > 30 | > 30 | – | – |
| – | – | – | – | – | CC1CCC2C(C)C(OC(=O)CCC(=O)NCc3nnc(Nc4ccc(Cl)cc4)o3)OC3OC4(C)CCC1C32OO4 (centres unmarked) [A6] | > 30 | > 30 | > 30 | > 30 | > 30 | – | – |
| – | – | – | – | – | CC1CCC2C(C)C(OC(=O)CCC(=O)NCc3nnc(Nc4cc(Br)ccc4Br)o3)OC3OC4(C)CCC1C32OO4 (centres unmarked) [A7] | > 30 | > 30 | > 30 | > 30 | > 30 | – | – |
| – | – | – | – | – | CC1CCC2C(C)C(OC(=O)CCC(=O)NCc3nnc(Nc4ccccc4F)o3)OC3OC4(C)CCC1C32OO4 (centres unmarked) [A9] | > 30 | > 30 | > 30 | > 30 | 8.89 ± 0.39 | – | – |
| – | – | – | – | – | CC1CCC2C(C)C(OC(=O)CCC(=O)NCc3nnc(Nc4ccc(C(C)(C)C)cc4)o3)OC3OC4(C)CCC1C32OO4 (centres unmarked) [A10] | > 30 | > 30 | > 30 | > 30 | 11.1 ± 1.28 | – | – |
| – | – | – | – | – | CC1CCC2C(C)C(OC(=O)CCC(=O)NCc3nnc(Nc4ccc(Br)cc4)o3)OC3OC4(C)CCC1C32OO4 (centres unmarked) [A11] | > 30 | > 30 | > 30 | > 30 | > 30 | – | – |
| – | – | – | – | – | Cc1cc(C)cc(Nc2nnc(CNC(=O)CCC(=O)OC3OC4OC5(C)CCC6C(C)CCC(C3C)C46OO5)o2)c1 (centres unmarked) [A13] | > 30 | > 30 | > 30 | > 30 | 9.72 ± 0.11 | – | – |
| – | – | – | – | – | COc1ccc(Nc2nnc(CNC(=O)CCC(=O)OC3OC4OC5(C)CCC6C(C)CCC(C3C)C46OO5)o2)cc1 (centres unmarked) [A14] | 19.4 ± 0.91 | > 30 | > 30 | > 30 | 6.86 ± 0.73 | – | – |
| – | – | – | – | – | Cc1ccc(Nc2nnc(CNC(=O)CCC(=O)OC3OC4OC5(C)CCC6C(C)CCC(C3C)C46OO5)o2)c(C)c1 (centres unmarked) [A15] | > 30 | > 30 | > 30 | > 30 | > 30 | – | – |
| > 30 | > 30 | 27.2 ± 0.67 | > 30 | > 30 | C[C@@H]1CC[C@H]2[C@@H](C)C(=O)O[C@@H]3O[C@@]4(C)CC[C@@H]1[C@]32OO4 [ART, Artemisinin] | – | – | – | – | – | – | – |
| – | – | – | – | – | CCOC(=O)c1ccc(NC2CCCCC2)c(N)c1 [Fer-1, ferrostatin-1, reference compound] | – | – | – | – | – | restored the expression of GPX4 | reversed lipid peroxide accumulation |
